10 molecules from patent US20250170104A1, “INHIBITORS OF PSEUDOMONAS AERUGINOSA VIRULENCE FACTOR Lasß” (priority 2022, published 2025) can be followed below.

Data set [1] addresses LasB (Pseudomonas aeruginosa (strain ATCC 15692 / DSM 22644 / CIP 104116 / JCM 14847 / LMG 12228 / 1C / PRS 101 / PAO1), UniProt P14756). As to the kind of experiment: In vitro LasB activity assay (fluorogenic substrate). Type of data set: biochemical. The note with it: LasB 0.3 nM, substrate 150 μM, mean ± SD. The procedure: The LasB activity assay was performed as described previously (Nishino N, Powers J C. Pseudomonas aeruginosa elastase. Development of a new substrate, inhibitors, and an affinity ligand. J Biol Chem. 1980 Apr. 25; 255(8):3482-6) using the fluorogenic substrate 2-Aminobenzoyl-L-Alanyl-Glycyl-L-Leucyl-L-Alanyl-para-Nitro-Benzyl-Amide, purchased from Peptides International (Louisville, KY, USA) and vivitide, LLC (Gardner, MA, USA).
Fluorescence intensity was measured for 60 min at 37° C. in black 384-well microtiter plates (Greiner BioOne, Kremsmünster, Austria) using a CLARIOstar microplate reader (BMG Labtech, Ortenberg, Germany) with an excitation wavelength of […] and an emission wavelength of 415±20 nm. The assay was performed in a final volume of 50 μL of assay buffer (50 mM Tris, pH 7.2, 2.5 mM CaCl2), 0.075% Pluronic F-127, 5% DMSO) containing LasB at a final concentration of […] 0.3 nM and the substrate at 150 μM. Before substrate addition, compounds were preincubated with the enzyme at 37° C. for 15 min. Experiments were performed in duplicates and repeated for at least two times. Blank controls without enzyme were performed. After blank subtraction, the slope of samples containing inhibitors (v) was divided by the slope of a simultaneously started uninhibited enzymatic reaction (v0). IC50 values were determined with nonlinear regression using GraphPad Prism 5 (Graph Pad Software, San Diego, CA, USA) and are given as mean values ±standard deviation (SD). The slope factor was constrained to 1.

A short description of data set [2]: Kinetic turbidimetric solubility assay. Type of data set: physicochemical. The note with it: PBS, aqueous buffer, kinetic from dmso stock. As to the method:
The desired compounds were sequentially diluted in DMSO in a 96-well plate. 1.5 μL of each well were transferred into another 96-well plate and mixed with 148.5 μL of PBS. Plates were shaken for 5 min at 600 rpm at room temperature, and the absorbance at 620 nm was measured. Absorbance values were normalized by blank subtraction and plotted using GraphPad Prism 8.4.2 (GraphPad Software, San Diego, CA, USA). Solubility (S) was determined based on the First X value of AUC function using a threshold of 0.005.

Data set [3] in a line: in vitro. The note with it: mouse, s9. The data set is classed as in vitro ADME. As to the method:
For the evaluation of combined phase I and phase II metabolic stability, the compound (1 μM) was incubated with 1 mg/mL pooled liver S9 fraction (Xenotech), 2 mM NADPH, 1 mM UDPGA, 10 mM MgCl2, 5 mM GSH and 0.1 mM PAPS at 37° C. for 0, 5, 15, 30 and 60 min. The metabolic stability of Testosterone (1 μM), verapamil (1 μM) and ketoconazol (1 μM) were determined in parallel to confirm the enzymatic activity of the S9 fraction. The incubation was stopped by precipitation of S9 enzymes with 2 volumes of cold acetonitrile containing internal standard (150 nM Diphenhydramine). Samples were stored on ice for 10 min and precipitated protein was removed by centrifugation (15 min, 4° C., 4,000 rpm). The remaining test compound at different time points was analyzed by LC-MS/MS (TSQ Quantum Access MAX, Thermo Fisher, Dreieich, Germany) and used to determine half-life (t½).

The test system of data set [4] is P. aeruginosa PAO1 (strain DSM22644). Put plainly: G. mellonella larvae survival after PAO1 infection. The data set is classed as in vivo. The note with it: for Final survival percentage of larvae: 3 CFU/Larva, 24 h. As to the method: Bacteria were grown overnight, diluted to OD600 of 0.025 in 10 ml medium, and grown for approx. 2 hours at 37° C. inside a shaker incubator until the OD600 of 1.8-2 is reached. The culture was then serially diluted in sterile PBS (pH=7.2). Bacterial densities of 3000, 300, 30, and 3 CFU/Larva were selected for injection into groups of 15 larvae. A total volume of 5 μl was injected into each larva via the hindmost left proleg by using a syringe pump and Sterican® needles (0.30×12 mm, 30G×½). In addition, control group without injection for the quality of the larvae and a PBS control to monitor the effect of the injection were included in the experiment. All test groups and control groups were incubated at 37° C. in the dark and monitored every 2 hours from 17 hours post-infection.
In vivo evaluation of compounds 162 and 169. Bacteria were cultured and prepared according to the previous section. Final concentrations of 50 μM, 25 μM, and 12.5 μM in combination with 3 CFU/Larva were injected into groups of 15 larvae. In addition to no injection and PBS controls, one group was infected with 3 CFU/Larva and considered the negative control. All test groups and control groups were incubated at 37° C. in the dark and monitored every 2 hours from 17 hours post-infection.

Data set [5] concerns the target MMP2 (Homo sapiens (Human), UniProt P08253). Put plainly: Selectivity assay: inhibition of MMPs. Type of data set: biochemical. As to the method:
(§1) MMPs-1, -2, -3, -7, -8 and -14 along with the SensoLyte 520 Generic MMP Activity Kit*Fluorimetric* were purchased from AnaSpec (Fremont, CA, USA). The assay was performed as described previously (Schönauer E, Kany A M, Haupenthal J, Hüsecken K, Hoppe I J, Voos K, et al. Discovery of a Potent Inhibitor Class with High Selectivity toward Clostridial Collagenases. J Am Chem Soc. 2017 Sep. 13; 139(36):12696-703) using batimastat as a positive control according to the guidelines of the manufacturer.

Data set [6] addresses MMP3 (Homo sapiens (Human), UniProt P08254). As to the kind of experiment: Selectivity assay: inhibition of MMPs. The data set is classed as biochemical. The procedure: as §1
Data set [7] concerns the target MMP1 (Homo sapiens (Human), UniProt P03956). As to the kind of experiment: Selectivity assay: inhibition of MMPs. Type of data set: biochemical. The following applies: read-out: Selectivity IC50 MMP1. The procedure: as §1
For data set [8], the target named is ADAM-17 (TACE) (Homo sapiens (Human), UniProt P78536). As to the kind of experiment: ADAM-17 (TACE) inhibitor screening assay. Type of data set: biochemical. The following applies: read-out: Selectivity IC50 TACE. As to the method:
The ADAM-17 (TACE) Inhibitor Screening Assay Kit was purchased from Sigma-Aldrich. The assay was performed according to the guidelines of the manufacturer using ilomastat as a positive control. Fluorescence signals were measured in a CLARIOstar plate reader (BMG Labtech).

Data set [9] has as its system P. aeruginosa PA-14. Put plainly: MIC determination assay / antibacterial activity. The data set is classed as cell-based. The note with it: Pseudomonas aeruginosa, PA14. The procedure:
Assays regarding the determination of the minimum inhibitory concentration (MIC) were performed as described previously (Elgaher W A M, Fruth M, Groh M, Haupenthal J, Hartmann R W. Expanding the scaffold for bacterial RNA polymerase inhibitors: design, synthesis and structure-activity relationships of ureido-heterocyclic-carboxylic acids. RSC Adv. 2013 Dec. 3; 4(5):2177-94). The experiments were based on the P. aeruginosa strain PA14. For the case that no MIC value could be determined due to activity reasons, percentage (%) inhibition at 100 μM (or lower, depending on the solubility of the compounds) was calculated. The OD600 was measured 0 and 16 h after inhibitor addition in a CLARIOstar Platereader (BMG Labtech, Ortenberg, Germany).

Data set [10] concerns the target HDAC8 (Homo sapiens (Human), UniProt Q9BY41). Put plainly: HDAC inhibition. The following applies: read-out: Selectivity IC50 HDAC8. The data set is classed as biochemical. As to the method:
(§2) HDAC3 and HDAC8 Inhibitor Screening Assay kits were purchased from Sigma-Aldrich. The assay was performed according to the guidelines of the manufacturer using trichostatin as a positive control. Fluorescence signals were measured in a CLARIOstar plate reader (BMG Labtech).

Data set [11] addresses HDAC3 (Homo sapiens (Human), UniProt O15379). As to the kind of experiment: HDAC inhibition. The data set is classed as biochemical. The note with it: read-out: Selectivity IC50 HDAC3. As to the method: as §2
Data set [12] in a line: Cytotoxicity assay. The data set is classed as cell-based. The following applies: human. As to the method: HepG2, HEK293 or A549 cells (2×10^5 cells per well) were seeded in 24-well, flat-bottomed plates. Culturing of cells, incubations, and OD measurements were performed as described previously (Int. J. Cancer 2007, 121, 206-210). Twenty-four hours after seeding the cells, the incubation was started by the addition of test compound in a final DMSO concentration of 1%. The living cell mass was determined after 48 h. At least two independent measurements were performed for each compound.

≈ marks a conversion by molar mass, not a printed value.

LasB, sequence (P14756 198-498): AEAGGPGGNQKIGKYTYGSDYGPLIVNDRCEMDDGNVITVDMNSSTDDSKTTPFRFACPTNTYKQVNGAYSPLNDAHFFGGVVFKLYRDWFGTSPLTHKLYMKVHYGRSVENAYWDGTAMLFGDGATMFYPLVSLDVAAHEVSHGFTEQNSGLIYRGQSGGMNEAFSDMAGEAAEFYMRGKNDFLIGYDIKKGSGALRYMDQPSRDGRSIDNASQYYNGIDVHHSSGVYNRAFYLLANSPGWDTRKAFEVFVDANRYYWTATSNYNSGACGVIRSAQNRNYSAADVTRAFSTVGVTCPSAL
ADAM-17 (TACE), sequence (P78536 whole entry, looked up): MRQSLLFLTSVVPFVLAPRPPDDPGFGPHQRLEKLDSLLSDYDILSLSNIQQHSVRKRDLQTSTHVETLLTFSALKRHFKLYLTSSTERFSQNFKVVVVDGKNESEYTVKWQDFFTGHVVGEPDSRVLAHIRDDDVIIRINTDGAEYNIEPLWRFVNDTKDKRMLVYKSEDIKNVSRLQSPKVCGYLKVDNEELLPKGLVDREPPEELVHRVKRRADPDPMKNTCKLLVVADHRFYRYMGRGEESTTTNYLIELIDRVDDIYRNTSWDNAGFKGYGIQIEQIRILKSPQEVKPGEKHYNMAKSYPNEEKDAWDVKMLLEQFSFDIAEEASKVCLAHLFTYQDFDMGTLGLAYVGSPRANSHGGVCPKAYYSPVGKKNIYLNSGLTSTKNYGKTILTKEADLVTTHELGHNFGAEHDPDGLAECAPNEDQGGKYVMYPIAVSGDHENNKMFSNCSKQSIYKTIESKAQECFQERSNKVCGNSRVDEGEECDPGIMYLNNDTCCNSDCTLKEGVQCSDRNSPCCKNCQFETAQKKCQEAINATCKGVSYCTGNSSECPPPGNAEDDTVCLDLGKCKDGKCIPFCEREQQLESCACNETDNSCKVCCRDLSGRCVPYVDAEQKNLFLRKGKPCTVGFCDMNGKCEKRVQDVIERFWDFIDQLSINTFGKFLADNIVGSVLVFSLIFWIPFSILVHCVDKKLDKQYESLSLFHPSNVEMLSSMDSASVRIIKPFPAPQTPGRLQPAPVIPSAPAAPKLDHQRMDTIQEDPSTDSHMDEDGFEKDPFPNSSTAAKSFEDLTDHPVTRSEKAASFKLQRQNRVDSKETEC
HDAC3, sequence (O15379 whole entry, looked up): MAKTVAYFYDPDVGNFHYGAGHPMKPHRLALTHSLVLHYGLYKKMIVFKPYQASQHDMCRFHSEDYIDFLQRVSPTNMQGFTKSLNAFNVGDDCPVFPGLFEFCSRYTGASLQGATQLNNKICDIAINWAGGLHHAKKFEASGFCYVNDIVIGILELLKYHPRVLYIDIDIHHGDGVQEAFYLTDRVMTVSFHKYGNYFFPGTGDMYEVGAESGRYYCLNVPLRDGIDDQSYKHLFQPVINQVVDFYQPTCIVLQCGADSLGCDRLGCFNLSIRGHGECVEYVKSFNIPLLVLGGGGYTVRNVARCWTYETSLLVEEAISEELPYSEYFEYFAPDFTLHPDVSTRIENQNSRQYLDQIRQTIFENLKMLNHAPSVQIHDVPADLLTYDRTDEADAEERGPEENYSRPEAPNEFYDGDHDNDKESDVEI
HDAC3, sequence (Q9Y618 whole entry partner, looked up): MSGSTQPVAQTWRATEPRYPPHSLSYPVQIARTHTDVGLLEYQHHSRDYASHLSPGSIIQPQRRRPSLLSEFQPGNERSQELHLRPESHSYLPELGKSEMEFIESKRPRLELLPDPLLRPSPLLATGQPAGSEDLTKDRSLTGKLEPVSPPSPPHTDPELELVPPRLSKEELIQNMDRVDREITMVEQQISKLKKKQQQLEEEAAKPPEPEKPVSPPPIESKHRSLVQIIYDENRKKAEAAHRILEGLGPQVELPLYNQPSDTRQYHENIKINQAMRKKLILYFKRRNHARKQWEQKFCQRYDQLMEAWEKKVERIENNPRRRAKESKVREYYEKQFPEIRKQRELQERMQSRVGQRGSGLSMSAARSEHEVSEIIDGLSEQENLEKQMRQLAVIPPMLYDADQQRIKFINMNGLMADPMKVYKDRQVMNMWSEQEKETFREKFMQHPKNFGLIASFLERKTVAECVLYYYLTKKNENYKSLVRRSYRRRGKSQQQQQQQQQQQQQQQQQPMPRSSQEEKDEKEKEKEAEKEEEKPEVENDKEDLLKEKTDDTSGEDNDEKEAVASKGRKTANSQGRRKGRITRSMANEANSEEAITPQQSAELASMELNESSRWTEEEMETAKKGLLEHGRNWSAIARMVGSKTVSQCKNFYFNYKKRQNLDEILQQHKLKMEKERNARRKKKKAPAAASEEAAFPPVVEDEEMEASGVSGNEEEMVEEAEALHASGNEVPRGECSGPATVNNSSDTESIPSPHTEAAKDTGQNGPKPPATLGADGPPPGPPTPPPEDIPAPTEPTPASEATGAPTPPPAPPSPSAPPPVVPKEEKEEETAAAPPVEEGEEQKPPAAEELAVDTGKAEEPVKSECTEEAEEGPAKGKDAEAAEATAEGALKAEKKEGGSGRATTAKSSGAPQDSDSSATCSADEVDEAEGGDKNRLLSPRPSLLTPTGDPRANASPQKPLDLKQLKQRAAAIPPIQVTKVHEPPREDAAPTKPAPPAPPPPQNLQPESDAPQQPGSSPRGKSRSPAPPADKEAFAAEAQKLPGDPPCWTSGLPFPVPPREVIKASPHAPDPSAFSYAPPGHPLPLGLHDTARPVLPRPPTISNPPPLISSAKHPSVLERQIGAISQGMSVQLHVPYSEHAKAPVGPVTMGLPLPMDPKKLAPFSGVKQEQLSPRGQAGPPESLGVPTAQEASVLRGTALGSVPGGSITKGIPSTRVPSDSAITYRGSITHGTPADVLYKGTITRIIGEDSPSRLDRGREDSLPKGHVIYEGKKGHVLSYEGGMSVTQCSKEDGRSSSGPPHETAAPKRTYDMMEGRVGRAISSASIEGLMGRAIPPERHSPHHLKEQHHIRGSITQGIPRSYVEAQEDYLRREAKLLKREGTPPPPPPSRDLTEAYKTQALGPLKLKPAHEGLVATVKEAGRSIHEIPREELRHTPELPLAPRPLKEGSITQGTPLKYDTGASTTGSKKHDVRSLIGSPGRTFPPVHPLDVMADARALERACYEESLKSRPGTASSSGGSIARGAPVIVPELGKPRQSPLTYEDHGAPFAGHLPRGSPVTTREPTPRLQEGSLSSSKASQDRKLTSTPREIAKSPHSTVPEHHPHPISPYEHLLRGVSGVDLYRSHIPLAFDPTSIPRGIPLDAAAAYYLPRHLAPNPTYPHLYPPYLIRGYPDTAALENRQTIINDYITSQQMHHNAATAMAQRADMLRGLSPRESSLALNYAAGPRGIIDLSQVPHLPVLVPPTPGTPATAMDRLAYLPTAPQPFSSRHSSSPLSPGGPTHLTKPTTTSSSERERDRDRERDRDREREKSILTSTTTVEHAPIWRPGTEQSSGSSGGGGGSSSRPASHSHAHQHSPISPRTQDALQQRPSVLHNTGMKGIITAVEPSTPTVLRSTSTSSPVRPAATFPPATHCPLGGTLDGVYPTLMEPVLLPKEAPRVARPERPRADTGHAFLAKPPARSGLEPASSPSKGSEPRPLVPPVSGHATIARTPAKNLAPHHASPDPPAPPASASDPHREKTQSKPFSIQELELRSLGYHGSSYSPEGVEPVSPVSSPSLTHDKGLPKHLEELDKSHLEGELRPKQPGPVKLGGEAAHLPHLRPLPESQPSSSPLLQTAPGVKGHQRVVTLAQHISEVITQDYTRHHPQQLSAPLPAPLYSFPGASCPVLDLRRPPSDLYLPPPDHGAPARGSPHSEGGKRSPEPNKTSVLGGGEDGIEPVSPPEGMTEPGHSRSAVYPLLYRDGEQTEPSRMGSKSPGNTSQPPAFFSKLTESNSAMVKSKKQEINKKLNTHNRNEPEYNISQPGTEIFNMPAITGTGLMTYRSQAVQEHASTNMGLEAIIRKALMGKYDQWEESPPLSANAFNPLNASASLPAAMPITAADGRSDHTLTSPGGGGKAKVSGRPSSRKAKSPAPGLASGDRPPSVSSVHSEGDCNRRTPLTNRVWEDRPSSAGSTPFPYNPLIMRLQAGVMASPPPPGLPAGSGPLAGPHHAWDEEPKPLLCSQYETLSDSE
MMP3, sequence (P08254 100-477): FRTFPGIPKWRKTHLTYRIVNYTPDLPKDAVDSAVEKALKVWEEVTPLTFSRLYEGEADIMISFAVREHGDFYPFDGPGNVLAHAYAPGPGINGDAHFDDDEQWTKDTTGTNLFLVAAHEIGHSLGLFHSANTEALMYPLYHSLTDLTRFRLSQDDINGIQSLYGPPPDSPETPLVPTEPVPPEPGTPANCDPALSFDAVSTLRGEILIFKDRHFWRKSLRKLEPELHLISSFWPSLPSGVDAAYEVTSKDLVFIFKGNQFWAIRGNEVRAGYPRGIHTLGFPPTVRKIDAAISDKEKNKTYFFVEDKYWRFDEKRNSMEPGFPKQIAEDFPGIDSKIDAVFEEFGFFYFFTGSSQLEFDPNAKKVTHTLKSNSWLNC
HDAC8, sequence (Q9BY41 whole entry): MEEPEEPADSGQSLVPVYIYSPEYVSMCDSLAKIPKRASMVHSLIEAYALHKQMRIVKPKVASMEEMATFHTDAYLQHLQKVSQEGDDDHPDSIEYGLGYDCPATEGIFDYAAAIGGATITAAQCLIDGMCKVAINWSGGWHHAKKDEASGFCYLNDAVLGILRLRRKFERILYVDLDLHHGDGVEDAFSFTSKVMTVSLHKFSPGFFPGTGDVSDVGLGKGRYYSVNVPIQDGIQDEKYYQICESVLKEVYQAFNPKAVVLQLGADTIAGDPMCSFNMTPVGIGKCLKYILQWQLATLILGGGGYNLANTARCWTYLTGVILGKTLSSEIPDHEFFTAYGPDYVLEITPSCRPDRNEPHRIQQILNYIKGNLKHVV

As usually defined, the IC50 is the midpoint of a concentration-inhibition curve. In general, solubility refers to how much of the substance goes into solution per volume. A higher solubility goes with a readily soluble substance. One may read the half-life as how long it takes for the measured level to halve. `CC(C)CC(C(=O)NO)C(=O)Nc1ccc(Cn2cc(CSc3ccc(Cl)cc3)nn2)cc1` (stereo not drawn) [Compound 136, N-[4-[[4-[(4-Chlorophenyl)sulfanylmethyl]triazol-1-yl]methyl]phenyl]-2-(hydroxycarbamoyl)-4-methyl-pentanamide] yielded a half-maximal inhibitory concentration (IC50) in [1] of 0.0014 ± 0.0001 µM. Also, in [2], the solubility at 5 min was less than 200 µM. The molecule further displayed a half-life at 1 μM in [3] of 3.3 ± 0.2 min.

Molecule `COc1ccc(S(=O)(=O)NCc2cn(Cc3ccc(NC(=O)C(CC(C)C)C(=O)NO)cc3)nn2)cc1` (stereo not drawn) [Compound 162, 2-(Hydroxycarbamoyl)-N-[4-[[4-[[(4-methoxyphenyl)sulfonylamino]methyl]triazol-1-yl]methyl]phenyl]-4-methyl-pentanamide] had a 50% inhibitory concentration (IC50) in data set [1] of 0.0019 ± 0.0001 µM. Further, the “Final survival percentage of larvae” value in data set [4] (12.5 μM) is 58%; in data set [4] (25 μM) it was 64%; in data set [4] (50 μM) it was 84%. Moreover, the “Improvement in survival of larvae compared to negative control” value in data set [4] (50 μM, vs 3 CFU/Larva without treatment) is listed as 40%.

With `CC(C)CC(C(=O)NO)C(=O)Nc1ccc(Cn2cc(CN(C)S(=O)(=O)c3ccc(I)cc3)nn2)cc1` (stereo not drawn) [Compound 131, 2-(Hydroxycarbamoyl)-N-[4-[[4-[[(4-iodophenyl)sulfonyl-methyl-amino]methyl]triazol-1-yl]methyl]phenyl]-4-methyl-pentanamide], inhibition in [1] was half-maximal at 0.0023 ± 0.0001 µM (IC50). Besides, in data set [2], the solubility at 5 min is less than 200 µM. The half-life at 1 μM in [3] turned out to be 37.5 ± 2.5 min.

`CC(C(=O)NO)C(=O)Nc1ccc(Cn2cc(CNS(=O)(=O)c3ccc(I)cc3)nn2)cc1` (stereo not drawn) [Compound 217, 3-(hydroxyamino)-N-[4-[[4-[[(4-iodophenyl)sulfonylamino]methyl]triazol-1-yl]methyl]phenyl]-2-methyl-3-oxo-propanamide] displayed an IC50 in [1] of 0.278 ± 0.0097 µM.

Regarding `CC(C)CC(C(=O)NO)C(=O)Nc1ccc(Cn2cc(CNS(=O)(=O)c3ccc(Cl)c(Cl)c3)nn2)cc1` (stereo not drawn) [Compound 165, N-[4-[[4-[[(3,4-Dichlorophenyl)sulfonylamino]methyl]triazol-1-yl]methyl]phenyl]-2-(hydroxycarbamoyl)-4-methyl-pentanamide], inhibition in data set [1] was half-maximal at 0.0016 ± 0.0001 µM (IC50). The molecule further registered a solubility at 5 min in data set [2] of 117 µM (≈ 66.6 µg/mL). In [3], the half-life at 1 μM came to 10.7 ± 0.6 min.

Molecule `O=C(NO)C(Cc1ccccc1)C(=O)Nc1ccc(Cn2cc(CNS(=O)(=O)c3ccc(I)cc3)nn2)cc1` (stereo not drawn) [Compound 179, 2-Benzyl-3-(hydroxyamino)-N-[4-[[4-[[(4-iodophenyl)sulfonylamino]methyl]triazol-1-yl]methyl]phenyl]-3-oxo-propanamide] gave an IC50 in data set [1] of 0.001 ± 0.0006 µM.

Molecule `CC(C)CC(C(=O)NO)C(=O)Nc1ccc(Cn2nncc2CNS(=O)(=O)CC(C)C)cc1` (stereo not drawn) [Compound 192, 2-(Hydroxycarbamoyl)-N-[4-[[5-[(isobutylsulfonylamino)methyl]triazol-1-yl]methyl]phenyl]-4-methyl-pentanamide] registered an IC50 in data set [1] of 0.0068 ± 0.0001 µM.

In the case of `CC(C)CC(C(=O)NO)C(=O)Nc1ccc(Cn2cc(Cc3ccc(Cl)cc3)nn2)cc1` (stereo not drawn) [Compound 137, N-[4-[[4-[(4-Chlorophenyl)methyl]triazol-1-yl]methyl]phenyl]-2-(hydroxycarbamoyl)-4-methyl-pentanamide], in [1], the half-inhibitory concentration (IC50) came out at 0.0169 ± 0.0013 µM.

As for `CC(C)CC(C(=O)NO)C(=O)Nc1ccc(CN=[N+]=[N-])cc1` (stereo not drawn) [Compound Z9, N-[4-(Azidomethyl)phenyl]-2-(hydroxycarbamoyl)-4-methyl-pentanamide], the 50% inhibitory concentration (IC50) in [5] is greater than 100 µM; in [6], greater than 100 µM; in data set [7], greater than 100 µM; in data set [8] it was 1.6 ± 0.2 µM; in [9], greater than 100 µM; in [1], 0.0169 ± 0.0006 µM. Also, the IC50 in data set [10] and in data set [11] was greater than 100 µM throughout. In addition, the IC50 at 48 h in [12] (A549 cells), in data set [12] (HEK293 cells) and in [12] (HepG2 cells) was greater than 100 µM in each case.

Regarding `CC(=O)c1ccc(S(=O)(=O)NCc2cn(Cc3ccc(NC(=O)C(CC(C)C)C(=O)NO)cc3)nn2)cc1` (stereo not drawn) [Compound 203, N-[4-[[4-[[(4-acetylphenyl)sulfonylamino]methyl]triazol-1-yl]methyl]phenyl]-2-(hydroxycarbamoyl)-4-methyl-pentanamide], the IC50 in data set [1] is 0.0079 ± 0.0002 µM.
